Laboratory results as given in ChEMBL document CHEMBL1128657, “Synthesis and in vitro biological evaluation of new triphenylethylene platinum (II) complexes” (Bioorg Med Chem Lett, 1995).

Experiments:
[1] = system: MCF7; assay: In vitro inhibition of estrogen receptor positive MCF-7 human mammary carcinoma cell proliferation; format: functional, cell-based
[2] = system: MDA-MB-231; assay: In vitro inhibition of estrogen receptor negative […] human mammary carcinoma cell proliferation; format: functional, cell-based

Row | Compound | IC50 ([1]; Homo sapiens, MCF7) [µM] | IC50 ([2]; Homo sapiens, MDA-MB-231) [µM] | IC50 ([1]; mcf7) [µM] | IC50 ([2]; mda-mb-231) [µM]
1 | COc1ccc(C(=C(CCCCCCCCCCCNCCN)c2ccccc2)c2ccc(OC)cc2)cc1 | 14 | 2.3 |  | 
2 | CC/C(=C(\c1ccccc1)c1ccc(OCCN(C)C)cc1)c1ccccc1 [TAMOXIFEN] | 17 | 28 |  | 
3 | CISPLATIN |  |  | 3 | 3.4
